Reference: PubChem BioAssay (NCI)
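These data come from cells grown in 96-well plates and exposed to compound for 48 hours at five concentrations. Here, GI50 denotes the concentration required for 50% inhibition of growth. TGI: concentration producing complete growth inhibition.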

Columns and labels:
Test in all cases: inhibition of tumour cell growth, NCI panel, 48 h; in the data active means GI50 below about 0.43 µM; inactive means the rest
UO-31 renal = test system: UO-31 renal
OVCAR-4 ovarian = test system: OVCAR-4 ovarian
786-0 renal = test system: 786-0 renal
LOX IMVI melanoma = test system: LOX IMVI melanoma
NCI-H522 lung = test system: NCI-H522 lung
TK-10 renal = test system: TK-10 renal
NCI-H460 lung = test system: NCI-H460 lung
UACC-62 melanoma = test system: UACC-62 melanoma
M14 melanoma = test system: M14 melanoma
MOLT-4 leukemia = test system: MOLT-4 leukemia
U251 CNS = test system: U251 CNS
SK-MEL-2 melanoma = test system: SK-MEL-2 melanoma
UACC-257 melanoma = test system: UACC-257 melanoma
CCRF-CEM leukemia = test system: CCRF-CEM leukemia
COLO 205 colon = test system: COLO 205 colon
PC-3 prostate = test system: PC-3 prostate
HOP-62 NSCLC = test system: HOP-62 NSCLC
SNB-75 CNS = test system: SNB-75 CNS
OVCAR-5 ovarian = test system: OVCAR-5 ovarian
SNB-19 CNS = test system: SNB-19 CNS
EKVX NSCLC = test system: EKVX NSCLC
MDA-MB-231 breast = test system: MDA-MB-231 breast
A549 NSCLC = test system: A549 NSCLC
RPMI-8226 leukemia = test system: RPMI-8226 leukemia
SR leukemia = test system: SR leukemia
ACHN renal = test system: ACHN renal
SN12C renal = test system: SN12C renal
HCC-2998 colon = test system: HCC-2998 colon
SK-MEL-28 melanoma = test system: SK-MEL-28 melanoma
HCT-15 colon = test system: HCT-15 colon
OVCAR-3 ovarian = test system: OVCAR-3 ovarian
SF-295 CNS = test system: SF-295 CNS
SW-620 colon = test system: SW-620 colon
NCI-H23 lung = test system: NCI-H23 lung
NCI-H226 lung = test system: NCI-H226 lung
SF-539 CNS = test system: SF-539 CNS
OVCAR-8 ovarian = test system: OVCAR-8 ovarian
RXF 393 renal = test system: RXF 393 renal
SF-268 CNS = test system: SF-268 CNS
MALME-3M melanoma = test system: MALME-3M melanoma
MDA-MB-435 = test system: MDA-MB-435
HL-60(TB) leukemia = test system: HL-60(TB) leukemia
HT29 colon = test system: HT29 colon
CAKI-1 renal = test system: CAKI-1 renal
HCT-116 colon = test system: HCT-116 colon
KM12 colon = test system: KM12 colon
MCF7 breast = test system: MCF7 breast
HS 578T breast = test system: HS 578T breast
SK-OV-3 ovarian = test system: SK-OV-3 ovarian
K-562 leukemia = test system: K-562 leukemia
HOP-92 NSCLC = test system: HOP-92 NSCLC
T-47D breast = test system: T-47D breast
BT-549 breast = test system: BT-549 breast
DU-145 prostate = test system: DU-145 prostate
IGROV1 ovarian = test system: IGROV1 ovarian
NCI/ADR-RES ovarian = test system: NCI/ADR-RES ovarian
A498 renal = test system: A498 renal
SK-MEL-5 melanoma = test system: SK-MEL-5 melanoma

Nc1sc2c(c1C(=O)c1ccc(Cl)c(Cl)c1)CCCC2
50.2 µM: TGI (NCI-H522 lung)
78.1 µM: TGI (RPMI-8226 leukemia)
49.3 µM: TGI (HCC-2998 colon)
65.3 µM: TGI (HL-60(TB) leukemia)
44.1 µM: TGI (SK-MEL-2 melanoma)
86.4 µM: TGI (SNB-75 CNS)
> 100 µM: TGI (UO-31 renal) | TGI (OVCAR-4 ovarian) | TGI (786-0 renal) | TGI (LOX IMVI melanoma) | TGI (TK-10 renal) | TGI (NCI-H460 lung) | TGI (UACC-62 melanoma) | TGI (M14 melanoma) | TGI (MOLT-4 leukemia) | TGI (U251 CNS) | TGI (UACC-257 melanoma) | TGI (CCRF-CEM leukemia) | TGI (COLO 205 colon) | TGI (PC-3 prostate) | TGI (HOP-62 NSCLC) | TGI (OVCAR-5 ovarian) | TGI (SNB-19 CNS) | TGI (EKVX NSCLC) | TGI (MDA-MB-231 breast) | TGI (A549 NSCLC) | TGI (SR leukemia) | TGI (ACHN renal) | TGI (SN12C renal) | TGI (SK-MEL-28 melanoma) | TGI (HCT-15 colon) | TGI (OVCAR-3 ovarian) | TGI (SF-295 CNS) | TGI (SW-620 colon) | TGI (NCI-H23 lung) | TGI (NCI-H226 lung) | TGI (SF-539 CNS) | TGI (OVCAR-8 ovarian) | TGI (RXF 393 renal) | TGI (SF-268 CNS) | TGI (MALME-3M melanoma) | TGI (MDA-MB-435) | TGI (HT29 colon) | TGI (CAKI-1 renal) | TGI (HCT-116 colon) | TGI (KM12 colon) | TGI (HS 578T breast) | TGI (SK-OV-3 ovarian) | TGI (K-562 leukemia) | TGI (HOP-92 NSCLC) | TGI (T-47D breast) | TGI (BT-549 breast) | TGI (DU-145 prostate)
64.8 µM: TGI (MCF7 breast)

O=C(Nc1ccc(Cl)c(Cl)c1)c1cccc(NC2=C(Cl)C(=O)N(Cc3ccccc3)C2=O)c1
96.1 µM: TGI (MCF7 breast)
inactive: GI50 (UO-31 renal) 34.6 µM | GI50 (OVCAR-4 ovarian) 48.3 µM | GI50 (786-0 renal) 48.4 µM | GI50 (LOX IMVI melanoma) 27 µM | GI50 (NCI-H522 lung) 16.6 µM | GI50 (TK-10 renal) > 100 µM | GI50 (NCI-H460 lung) 30.3 µM | GI50 (UACC-62 melanoma) 37.1 µM | GI50 (M14 melanoma) 66 µM | GI50 (MOLT-4 leukemia) 6.36 µM | GI50 (U251 CNS) 35.3 µM | GI50 (SK-MEL-2 melanoma) 23.5 µM | GI50 (UACC-257 melanoma) 41.1 µM | GI50 (CCRF-CEM leukemia) 23.4 µM | GI50 (IGROV1 ovarian) 21.1 µM | GI50 (COLO 205 colon) > 100 µM | GI50 (PC-3 prostate) 27.2 µM | GI50 (HOP-62 NSCLC) > 100 µM | GI50 (SNB-75 CNS) > 100 µM | GI50 (OVCAR-5 ovarian) > 100 µM | GI50 (SNB-19 CNS) > 100 µM | GI50 (EKVX NSCLC) 20.2 µM | GI50 (MDA-MB-231 breast) 26.4 µM | GI50 (A549 NSCLC) 42.9 µM | GI50 (RPMI-8226 leukemia) 14.4 µM | GI50 (SR leukemia) 8.37 µM | GI50 (ACHN renal) 39.8 µM | GI50 (SN12C renal) 52.9 µM | GI50 (SK-MEL-28 melanoma) > 100 µM | GI50 (HCT-15 colon) 36.6 µM | GI50 (NCI/ADR-RES ovarian) 24.4 µM | GI50 (OVCAR-3 ovarian) 24.6 µM | GI50 (SF-295 CNS) 49.7 µM | GI50 (SW-620 colon) 48.8 µM | GI50 (NCI-H23 lung) 37.1 µM | GI50 (NCI-H226 lung) 35.5 µM | GI50 (SF-539 CNS) 7.75 µM | GI50 (OVCAR-8 ovarian) 31.6 µM | GI50 (RXF 393 renal) 25.1 µM | GI50 (SF-268 CNS) 34.9 µM | GI50 (MALME-3M melanoma) 62.1 µM | GI50 (MDA-MB-435) 35.7 µM | GI50 (HL-60(TB) leukemia) 45.8 µM | GI50 (HT29 colon) 59.6 µM | GI50 (A498 renal) 23.8 µM | GI50 (CAKI-1 renal) 53.9 µM | GI50 (HCT-116 colon) 27.8 µM | GI50 (KM12 colon) 69 µM | GI50 (MCF7 breast) 22.5 µM | GI50 (SK-MEL-5 melanoma) > 100 µM | GI50 (HS 578T breast) 45.4 µM | GI50 (SK-OV-3 ovarian) > 100 µM | GI50 (K-562 leukemia) 11.5 µM | GI50 (T-47D breast) 61.2 µM | GI50 (BT-549 breast) 17.3 µM | GI50 (DU-145 prostate) 20.6 µM
64.5 µM: TGI (EKVX NSCLC)
65.6 µM: TGI (RXF 393 renal)
45.5 µM: TGI (NCI-H522 lung)
91.1 µM: TGI (IGROV1 ovarian)
88.9 µM: TGI (NCI/ADR-RES ovarian)
89.5 µM: TGI (OVCAR-8 ovarian)
87.1 µM: TGI (BT-549 breast)
> 100 µM: TGI (UO-31 renal) | TGI (OVCAR-4 ovarian) | TGI (786-0 renal) | TGI (LOX IMVI melanoma) | TGI (TK-10 renal) | TGI (NCI-H460 lung) | TGI (UACC-62 melanoma) | TGI (M14 melanoma) | TGI (U251 CNS) | TGI (UACC-257 melanoma) | TGI (CCRF-CEM leukemia) | TGI (COLO 205 colon) | TGI (PC-3 prostate) | TGI (HOP-62 NSCLC) | TGI (SNB-75 CNS) | TGI (OVCAR-5 ovarian) | TGI (SNB-19 CNS) | TGI (MDA-MB-231 breast) | TGI (A549 NSCLC) | TGI (ACHN renal) | TGI (SN12C renal) | TGI (SK-MEL-28 melanoma) | TGI (HCT-15 colon) | TGI (OVCAR-3 ovarian) | TGI (SF-295 CNS) | TGI (SW-620 colon) | TGI (NCI-H23 lung) | TGI (NCI-H226 lung) | TGI (SF-268 CNS) | TGI (MALME-3M melanoma) | TGI (MDA-MB-435) | TGI (HL-60(TB) leukemia) | TGI (HT29 colon) | TGI (A498 renal) | TGI (CAKI-1 renal) | TGI (HCT-116 colon) | TGI (KM12 colon) | TGI (SK-MEL-5 melanoma) | TGI (HS 578T breast) | TGI (SK-OV-3 ovarian) | TGI (K-562 leukemia) | TGI (T-47D breast) | TGI (DU-145 prostate)
68 µM: TGI (SR leukemia)
44.7 µM: TGI (RPMI-8226 leukemia)
38.2 µM: TGI (SF-539 CNS)
78.5 µM: TGI (MOLT-4 leukemia)
56.5 µM: TGI (SK-MEL-2 melanoma)

CN=C(N)N/N=C(\C)c1ccc2c(c1)Cc1cc(/C(C)=N/NC(N)=NC)ccc1-2
0.781 µM: TGI (SN12C renal)
inactive: GI50 (786-0 renal) 0.752 µM | GI50 (TK-10 renal) 2.32 µM | GI50 (UACC-62 melanoma) 2.48 µM | GI50 (UACC-257 melanoma) 3.23 µM | GI50 (CCRF-CEM leukemia) 0.444 µM | GI50 (PC-3 prostate) 2.13 µM | GI50 (HOP-62 NSCLC) 0.668 µM | GI50 (SR leukemia) 1.81 µM | GI50 (HCT-15 colon) 2.04 µM | GI50 (NCI/ADR-RES ovarian) 10.9 µM | GI50 (SW-620 colon) 2.36 µM | GI50 (HT29 colon) 2.13 µM | GI50 (CAKI-1 renal) 2.07 µM | GI50 (HCT-116 colon) 2.36 µM | GI50 (HS 578T breast) 0.725 µM | GI50 (HOP-92 NSCLC) 1.33 µM | GI50 (T-47D breast) 2.02 µM | GI50 (BT-549 breast) 1.96 µM
active: GI50 (MOLT-4 leukemia) 0.422 µM | GI50 (SN12C renal) 0.254 µM
6.19 µM: TGI (SW-620 colon)
> 100 µM: TGI (786-0 renal) | TGI (UACC-62 melanoma) | TGI (MOLT-4 leukemia) | TGI (UACC-257 melanoma) | TGI (CCRF-CEM leukemia) | TGI (HOP-62 NSCLC) | TGI (SR leukemia) | TGI (HCT-15 colon) | TGI (NCI/ADR-RES ovarian) | TGI (HCT-116 colon)
> 20.8 µM: TGI (HT29 colon)
5.37 µM: TGI (CAKI-1 renal)
5.8 µM: TGI (PC-3 prostate)
5.62 µM: TGI (BT-549 breast)
3.76 µM: TGI (HS 578T breast)
7.09 µM: TGI (TK-10 renal)
5.47 µM: TGI (T-47D breast)
6.15 µM: TGI (HOP-92 NSCLC)
